Several values for one entry are separate records, joined by “and”; a condition that tells them apart may be missing. Identical values can stand only once. Counter-ions that a name gives are not always drawn. Like-named read-outs stand apart in the source and are kept apart here.
Key:
[1] = tested on: subjects suffering from opiate withdrawal symptoms;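 also: inpatients in opioid withdrawal given intravenous infusion titrated upward every 30 min (up to 0.1 mcg/kg/hr steps) until COWS total, a clinician-rated 11-item withdrawal scale, fell by half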
Procedure: All participants were screened for inclusion and exclusion criteria at screening. The participants were admitted to the site of the day on screening and after 8-12 hours discontinuation of opiates in order to achieve mild to moderate withdrawal. Baseline assessments were performed on the day of admission (Screening), as well as on the day of infusion (Day 1), which was followed by preparation for infusion, the infusion (up to 3 hours) and time necessary for resolution of withdrawal symptoms as defined as a 50% reduction in COWS total score and any decreases in blood pressure or heart rate which meet stopping criteria. A second infusion was given on the next day. The stopping criteria and assessment scheduled remained the same for the second infusion as for the initial infusion.
In addition to the above attainment of a 50% reduction in COWS total score, dosing was stopped for safety reasons at any time if any of the following occurred: • a. drop in systolic BP<90 mm of Hg. • b. drop in diastolic BP<60 mm of Hg • c. drop in heart rate below 50 beats per minute • d. RASS score of −1
The dose was increased by up to 0.1 mcg/kg/hr if the desired level of sedation was not achieved by the end of 30 minutes of infusion of the prior dose. The infusion was continued for up to 2.5 hours up to the maximum dose. In no instance was the infusion rate exceed 1.0 mcg/kg/hr and the maximum total dose administered was capped to 1.6 mcg/kg/hr for any participant.

[2] = tested on: agitated subjects with senile dementia of Alzheimer's type; conditions: for RASS score: per subject
Procedure: Clinical evaluation was performed as follows. Patients were screened up to 4 weeks prior to randomization. After obtaining the written informed consent from subjects, subjects were allowed to participate in the study related screening activities. Screening activities included clinical laboratory tests, physical examination, ECG, etc. After completion of all screening related activities, the eligible subjects [male and female subjects 55 to 75 years of age; known cases of mild probable Alzheimer's disease (SDAT) in accordance with NINCDS/ADRDA criteria for diagnosis of Alzheimer's disease with a Mini-Mental State Score of between 20 to 24; RASS score of +1 or +2 on the Day −1 and prior to drug administration on Day 1] were randomized in the study (treatment allocation 5:2). Subjects were housed in the clinic from Day −1 (preferably in the afternoon or evening) to end of study. Additional housing was allowed performed based on the investigator's discretion.
Study drug IV infusion was to be stopped at any time if any of the following occurred: • There was more than 20 mm Hg decrease in systolic or diastolic blood pressure. • There was an isolated drop in Systolic BP<100 mm of Hg. • There was an isolated drop Diastolic BP<60 mm of Hg. • There was a decrease in heart rate of 20 beats per minute or a drop below 50 beats per minute. • Attainment of a RASS of −1 at the end of each 30 minutes infusion period.
All raters were trained in the use of the RASS scale.
Once the participant was drowsy but able to respond to verbal stimulation, the infusion was stopped, and time was recorded.

Cc1cccc([C@H](C)c2cnc[nH]2)c1C [dexmedetomidine hydrochloride]
COW score ([1]; Day 1, Patient OP-17 (Treatment), 30 min. post Infusion): 5
COW score ([1]; Day 2, Patient OP-1 (Treatment), 00:00 Hr): 9
COW score ([1]; Day 2, Patient OP-1 (Treatment), 00:15 Hr): 8
COW score ([1]; Day 2, Patient OP-1 (Treatment), 00:30 Hr): 2
COW score ([1]; Day 2, Patient OP-1 (Treatment), last cell, 30 min. post Infusion): 0
COW score ([1]; Day 2, Patient OP-2 (Treatment), 00:00 Hr): 14
COW score ([1]; Day 2, Patient OP-2 (Treatment), 00:15 Hr): 11
COW score ([1]; Day 2, Patient OP-2 (Treatment), 00:30 Hr): 12
COW score ([1]; Day 2, Patient OP-2 (Treatment), 00:45 Hr): 10
COW score ([1]; Day 2, Patient OP-2 (Treatment), 01:00 Hr): 9
COW score ([1]; Day 2, Patient OP-2 (Treatment), 01:15 Hr): 7
COW score ([1]; Day 2, Patient OP-2 (Treatment), last cell, 30 min. post Infusion): 4
COW score ([1]; Day 2, Patient OP-3 (Treatment), 00:00 Hr): 10
COW score ([1]; Day 2, Patient OP-3 (Treatment), 00:15 Hr): 8
COW score ([1]; Day 2, Patient OP-3 (Treatment), 00:30 Hr): 6
COW score ([1]; Day 2, Patient OP-3 (Treatment), 00:45 Hr): 4
COW score ([1]; Day 2, Patient OP-3 (Treatment), last cell, 30 min. post Infusion): 4
COW score ([1]; Day 2, Patient OP-9 (Treatment), 00:30 Hr): 14
COW score ([1]; Day 2, Patient OP-9 (Treatment), 00:45 Hr): 14
COW score ([1]; Day 2, Patient OP-9 (Treatment), 01:00 Hr): 14
COW score ([1]; Day 2, Patient OP-9 (Treatment), 01:15 Hr): 12
COW score ([1]; Day 2, Patient OP-9 (Treatment), 01:30 Hr): 12
COW score ([1]; Day 2, Patient OP-9 (Treatment), 01:45 Hr): 12
COW score ([1]; Day 2, Patient OP-9 (Treatment), 02:00 Hr): 9
COW score ([1]; Day 2, Patient OP-9 (Treatment), last cell, 30 min. post Infusion): 9
COW score ([1]; Day 2, Patient OP-17 (Treatment), 00:00 Hr): 14
COW score ([1]; Day 2, Patient OP-17 (Treatment), 00:15 Hr): 14
COW score ([1]; Day 2, Patient OP-17 (Treatment), 00:30 Hr): 12
COW score ([1]; Day 2, Patient OP-17 (Treatment), 00:45 Hr): 11
COW score ([1]; Day 2, Patient OP-17 (Treatment), 01:00 Hr): 5
COW score ([1]; Day 2, Patient OP-17 (Treatment), last cell, 30 min. post Infusion): 5
Efficacy (Primary/secondary end points): subjects with COWS greater than or equal to 50% reduction ([1]; Opioid withdrawal Study): 11/11 COWS
Range of efficacious dose of IV dexmedetomidine hydrochloride ([1]; Opioid withdrawal Study, continuous infusion): 0.2 to 0.7 µg/kg/h
effect on physiological symptoms of opioid withdrawal (COWS) ([1]; opioid withdrawal): effectively mitigated the physiological symptoms of opioid withdrawal
subjects who achieved 50% reduction in COW score ([1]; opioid withdrawal, Day 1): 10 out of 10
optimal dose at 50% of the COW score achieved, Max ([1]; opioid withdrawal, Day 1, n=10): 0.4 µg/kg/h
optimal dose at 50% of the COW score achieved, Mean ± Sd (mean infusion rate) ([1]; opioid withdrawal, Day 1, n=10): 0.29 µg/kg/h
optimal dose at 50% of the COW score achieved, Median ([1]; opioid withdrawal, Day 1, n=10): 0.3 µg/kg/h
optimal dose at 50% of the COW score achieved, Min ([1]; opioid withdrawal, Day 1, n=10): 0.2 µg/kg/h
optimal dose at 50% of the COW score achieved, Mean ± Sd (mean infusion rate) ([1]; opioid withdrawal, Day 1, n=10, listed as Test): 0.29 ± 0.08 µg/kg/h
patients in the treatment arm who achieved 50% reduction in COW score ([1]; opioid withdrawal, Day 2): 5 out of 5
optimal dose at 50% of the COW score achieved, Max ([1]; opioid withdrawal, Day 2, n=5): 0.7 µg/kg/h
optimal dose at 50% of the COW score achieved, Mean ± Sd (mean infusion rate) ([1]; opioid withdrawal, Day 2, n=5): about 0.44 mcg/kg/hr
optimal dose at 50% of the COW score achieved, Median ([1]; opioid withdrawal, Day 2, n=5): 0.4 µg/kg/h
optimal dose at 50% of the COW score achieved, Min ([1]; opioid withdrawal, Day 2, n=5): 0.2 µg/kg/h
optimal dose at 50% of the COW score achieved, Mean ± Sd (mean infusion rate) ([1]; opioid withdrawal, Day 2, n=5, listed as Test): 0.44 ± 0.16 µg/kg/h
Efficacy (Primary/secondary end points): subjects reaching RASS-1 ([2]; Alzheimer's Study): 7/10 RASS-1
Range of efficacious dose of IV dexmedetomidine hydrochloride ([2]; Alzheimer's Study, continuous infusion): 0.2 to 0.5 µg/kg/h
time after infusion discontinuation at which subjects became alert and remained calm ([2]; SDAT): around 30 minutes
IV infusion rate, range ([2]; SDAT patients): 0.2 to 0.5 µg/kg/h
RASS score ([2]; SDAT patients, 00:00 Hr, listed as Treatment): 2 (5×) and 1 (5×)
RASS score ([2]; SDAT patients, 02:30 Hr): 1
Total dose, range ([2]; SDAT, extent of exposure): 0.15 to 0.75 µg/kg
Time period for which a calming effect persisted after discontinuation of study drug ([2]; SDAT, n=7): 5 min
Time period for which a calming effect persisted after discontinuation of study drug, Max ([2]; SDAT, n=7): 45 min
Time period for which a calming effect persisted after discontinuation of study drug, Mean ± SD ([2]; SDAT, n=7): 28.6 ± 15.74 min
Time period for which a calming effect persisted after discontinuation of study drug, Median ([2]; SDAT, n=7): 30 min
optimal dose at which a RASS score of −1 was achieved, Max ([2]; SDAT, n=7): 0.5 µg/kg/h
optimal dose at which a RASS score of −1 was achieved, Mean ± Sd (mean infusion rate) ([2]; SDAT, n=7): 0.34 µg/kg/h
optimal dose at which a RASS score of −1 was achieved, Median ([2]; SDAT, n=7): 0.30 µg/kg/h
optimal dose at which a RASS score of −1 was achieved, Min ([2]; SDAT, n=7): 0.2 µg/kg/h
optimal dose at which a RASS score of −1 was achieved, Mode ([2]; SDAT, n=7): 0.30 µg/kg/h
optimal dose at which a RASS score of −1 was achieved, Mean ± Sd (mean infusion rate) ([2]; SDAT, n=7, listed as Test): 0.34 ± 0.098 µg/kg/h
optimal dose at which a RASS score of −1 was achieved, Mean ± Sd (mean infusion rate) ([2]; SDAT, n=7, listed as dexmedetomidine): 0.34 µg/kg/h
subjects who achieved a RASS score of −1 ([2]; SDAT, out of 10 subjects): 7
